Source: ChEMBL document CHEMBL3817834, “Scaffold morphing leading to evolution of 2,4-diaminoquinolines and aminopyrazolopyrimidines as inhibitors of the ATP synthesis pathway” (Medchemcomm, 2016)
≈ marks a conversion by molar mass, not a printed value.

Experiments:
Format in all cases: functional
[1] = system: Mycobacterium tuberculosis; assay: Antimycobacterial activity against bedaquiline resistant Mycobacterium tuberculosis harboring A63P mutant by turbidometric method
[2] = system: Mycobacterium tuberculosis; assay: Antimycobacterial activity against rifampicin resistant Mycobacterium tuberculosis isolate 19000 by turbidometric method
[3] = system: Mycobacterium tuberculosis; assay: Antimycobacterial activity against isoniazid resistant Mycobacterium tuberculosis isolate 35822 by turbidometric method
[4] = system: Mycobacterium tuberculosis; assay: Antimycobacterial activity against ofloxacin resistant Mycobacterium tuberculosis isolate 12119 by turbidometric method
[5] = system: Mycobacterium tuberculosis; assay: Antimycobacterial activity against streptomycin resistant Mycobacterium tuberculosis isolate 35820 by turbidometric method
[6] = system: Mycobacterium tuberculosis; assay: Antimycobacterial activity against bedaquiline resistant Mycobacterium tuberculosis harboring I66M mutant by turbidometric method
[7] = system: Mycobacterium tuberculosis; assay: Antimycobacterial activity against ethambutol resistant Mycobacterium tuberculosis isolate 17003 by turbidometric method

SMILES | MIC=>80 [1] [µM] | MIC80 [2] [µM] | MIC80 [3] [µM] | MIC80 [4] [µM] | MIC80 [5] [µM] | MIC=>80 [6] [µM] | MIC80 [7] [µM]
CN(C)CCOc1ncc(Nc2cc(-c3ccccc3)nc3cc(-c4ccc(F)cc4)nn23)cc1F | 12.5 (≈ 6.08 µg/mL) | 6.3 (≈ 3.07 µg/mL) | 12.5 (≈ 6.08 µg/mL) | 12.5 (≈ 6.08 µg/mL) | 25 (≈ 12.2 µg/mL) | 6.3 (≈ 3.07 µg/mL) | 6.3 (≈ 3.07 µg/mL)
CN(C)CCOc1ncc(Nc2cc(-c3ccccc3)nc3cc(-c4ccc(F)cc4)[nH]c23)cc1F | 3.1 (≈ 1.51 µg/mL) | 3.1 (≈ 1.51 µg/mL) | 3.1 (≈ 1.51 µg/mL) | 25 (≈ 12.1 µg/mL) | 25 (≈ 12.1 µg/mL) | 3.1 (≈ 1.51 µg/mL) | 6.3 (≈ 3.06 µg/mL)
COc1cc2nc(N3CCC(c4ccccc4Cl)C3)cc(Nc3cnc(OCCN(C)C)c(F)c3)c2cc1OC (stereo not given) | 3.1 (≈ 1.75 µg/mL) | 3.1 (≈ 1.75 µg/mL) | 6.3 (≈ 3.57 µg/mL) | 12.5 (≈ 7.08 µg/mL) | 12.5 (≈ 7.08 µg/mL) | 6.3 (≈ 3.57 µg/mL) | 6.3 (≈ 3.57 µg/mL)
CN(C)CCOc1ncc(Nc2cc(N3CCC(c4ccccc4Cl)C3)nc3cc(F)c(F)cc23)cc1F (stereo not given) | 3.1 (≈ 1.68 µg/mL) | 3.1 (≈ 1.68 µg/mL) | 3.1 (≈ 1.68 µg/mL) | 25 (≈ 13.6 µg/mL) | 25 (≈ 13.6 µg/mL) | 3.1 (≈ 1.68 µg/mL) | 6.3 (≈ 3.41 µg/mL)
COc1nc2ccc(Br)cc2cc1[C@@H](c1ccccc1)[C@@](O)(CCN(C)C)c1cccc2ccccc12 [BEDAQUILINE] | >10 | < 2 | < 2 | < 2 | < 2 | 10 (≈ 5.56 µg/mL) | < 2
CC[C@@H](CO)NCCN[C@@H](CC)CO [ETHAMBUTOL] | 9.8 (≈ 2 µg/mL) | 9.8 (≈ 2 µg/mL) | 9.8 (≈ 2 µg/mL) | 4.9 (≈ 1 µg/mL) | 9.8 (≈ 2 µg/mL) | 9.8 (≈ 2 µg/mL) | > 20
NNC(=O)c1ccncc1 [ISONIAZID] | 0.2 (≈ 0.0274 µg/mL) | 0.2 (≈ 0.0274 µg/mL) | > 15 | 0.2 (≈ 0.0274 µg/mL) | 0.2 (≈ 0.0274 µg/mL) | 0.2 (≈ 0.0274 µg/mL) | 0.2 (≈ 0.0274 µg/mL)
CC1COc2c(N3CCN(C)CC3)c(F)cc3c(=O)c(C(=O)O)cn1c23 (stereo not given) [OFLOXACIN] | 0.7 (≈ 0.253 µg/mL) | 0.7 (≈ 0.253 µg/mL) | 0.7 (≈ 0.253 µg/mL) | > 5.6 | 0.7 (≈ 0.253 µg/mL) | 0.7 (≈ 0.253 µg/mL) | 0.3 (≈ 0.108 µg/mL)
CO[C@H]1/C=C/O[C@@]2(C)Oc3c(C)c(O)c4c(O)c(c(/C=N/N5CCN(C)CC5)c(O)c4c3C2=O)NC(=O)/C(C)=C\C=C\[C@H](C)[C@H](O)[C@@H](C)[C@@H](O)[C@@H](C)[C@H](OC(C)=O)[C@@H]1C [RIFAMPIN] | 0.04 (≈ 0.0329 µg/mL) | > 1.2 | 0.04 (≈ 0.0329 µg/mL) | 0.04 (≈ 0.0329 µg/mL) | 0.04 (≈ 0.0329 µg/mL) | 0.04 (≈ 0.0329 µg/mL) | 0.04 (≈ 0.0329 µg/mL)
CN[C@@H]1[C@H](O[C@H]2[C@H](O[C@H]3[C@H](O)[C@@H](O)[C@H](N=C(N)N)[C@@H](O)[C@@H]3N=C(N)N)O[C@@H](C)[C@]2(O)C=O)O[C@@H](CO)[C@H](O)[C@H]1O [STREPTOMYCIN] | 0.3 (≈ 0.174 µg/mL) | 0.3 (≈ 0.174 µg/mL) | 0.3 (≈ 0.174 µg/mL) | 0.3 (≈ 0.174 µg/mL) | > 11 | 0.3 (≈ 0.174 µg/mL) | 0.3 (≈ 0.174 µg/mL)
